For 27 compounds, Ki results are on record in ChEMBL document CHEMBL4842373, “C1'-Branched acyclic nucleoside phosphonates mimicking adenosine monophosphate: Potent inhibitors of Trypanosoma brucei adenine phosphoribosyltransferase” (Eur J Med Chem, 2021).

This test in a line: Inhibition of Trypanosoma brucei adenine phosphoribosyltransferase expressed in Escherichia coli measured by spectrophotometric method.
One may read the Ki as the equilibrium dissociation constant of an inhibitor or competing ligand from its target. On to `CCC(COCP(=O)(O)O)n1cnc2c(N)ncnc21` (configuration not stated), for which the Ki is 11.8 µM. For `CCO[C@@H](COCP(=O)(O)O)n1cnc2c(N)ncnc21`, the Ki was more than 30 µM. `Nc1ncnc2c1ncn2[C@@H](CCOCP(=O)(O)O)OCCO` displayed an inhibitory constant (Ki) of 1.56 µM.

The compound `CC(C)[C@@H](COCP(=O)(O)O)n1cnc2c(N)ncnc21` displayed an inhibition constant Ki of 17.5 µM. This Ki is about 11-fold higher than that of the compound before. Regarding `Nc1ncnc2c1ncn2C(COCCP(=O)(O)O)OCCO` (configuration not stated), the Ki was more than 30 µM.

In the case of `C=CC(COCP(=O)(O)O)n1cnc2c(N)ncnc21` (configuration not stated), the Ki is 16.3 µM. In other words, the double-digit micromolar range.

Consider `Nc1ncnc2c1ncn2C(CCP(=O)(O)O)OCCO` (configuration not stated), for which the inhibitory constant (Ki) was more than 30 µM. As to `Nc1ncnc2c1ncn2[C@H](CO)COCP(=O)(O)O`, the Ki was 15.4 µM. As to `Nc1ncnc2c1ncn2C(CCOCP(=O)(O)O)OCCCO` (configuration not stated), the affinity corresponds to a Ki of 3.21 µM. With `Nc1ncnc2c1ncn2C(COCP(=O)(O)O)OCCO` (configuration not stated), the inhibition constant (Ki) turned out to be 6.1 µM. Against the preceding compound, the Ki is about 1.9-fold higher. In the case of `CCO[C@H](COCP(=O)(O)O)n1cnc2c(N)ncnc21`, the inhibition constant (Ki) came out at 2.39 µM.

As to `Nc1ncnc2c1ncn2C(COCP(=O)(O)O)C(F)(F)F` (configuration not stated), the Ki is more than 30 µM.

Regarding `COC(COCP(=O)(O)O)n1cnc2c(N)ncnc21` (configuration not stated), affinity was put at a Ki of 13.1 µM. The figure for `Nc1ncnc2c1ncn2[C@H](COCc1ccccc1)COCP(=O)(O)O` is 39 µM. As to `Nc1ncnc2c1ncn2[C@@H](COCc1ccccc1)COCP(=O)(O)O`, the Ki is more than 30 µM. `Nc1ncnc2c1ncn2C(COCP(=O)(O)O)C1CC1` (configuration not stated) displayed a Ki of 5.84 µM. On to `Nc1ncnc2c1ncn2C(CO)COCP(=O)(O)O` (configuration not stated), for which the inhibitory constant (Ki) stood at 19.7 µM. `CC(COCP(=O)(O)O)n1cnc2c(N)ncnc21` (configuration not stated) displayed an inhibition constant (Ki) of more than 30 µM.

As to `Nc1ncnc2c1ncn2[C@H](CCOCP(=O)(O)O)OCCO`, the inhibition constant (Ki) is 37.2 µM. `Nc1ncnc2c1ncn2[C@@H](COCP(=O)(O)O)C1CC1` yielded an inhibition constant (Ki) of 2.95 µM. Next, `CCOC(COCP(=O)(O)O)n1cnc2c(N)ncnc21` (configuration not stated): 3.95 µM; `C#CC(COCP(=O)(O)O)n1cnc2c(N)ncnc21` (configuration not stated): 26.7 µM; `CC(C)[C@H](COCP(=O)(O)O)n1cnc2c(N)ncnc21`: 0.57 µM. `CO[C@@H](COCP(=O)(O)O)n1cnc2c(N)ncnc21`: the Ki was more than 30 µM. Turning to `CC[C@H](COCP(=O)(O)O)n1cnc2c(N)ncnc21`, the Ki came out at 3.18 µM. Next, `CO[C@H](COCP(=O)(O)O)n1cnc2c(N)ncnc21`: 9.88 µM; `Nc1ncnc2c1ncn2C(CCOCP(=O)(O)O)OCCO` (configuration not stated): 4.9 µM.
